# Measurements published in PMC3064895 (Cancer Chemotherapy and Pharmacology, 2010).
# Like-named read-outs stand apart in the source and are kept apart here.
# Experiments:
# [1] = Plasma pharmacokinetics at steady state of sorafenib; format: in vivo, patients with advanced cancer; settings: for AUC, geometric mean (% CV): AUC(0–12), n = 14; for AUC, geometric mean (% CV) / AUCnorm, geometric mean (% CV) / C max, geometric mean (% CV) / C max,norm, geometric mean (% CV) / C trough, geometric mean (% CV) / C trough,norm, geometric mean (% CV) / t max, median (range): plasma, sorafenib 400 mg bid; for AUC ratio (90% CI) / C max ratio (90% CI) / C trough ratio (90% CI): ratio of day 1 of cycle 5 versus day 1 of cycle 2
# [2] = QT/QTc interval on 12-lead Holter ECG; format: in vivo, patients with advanced cancer; settings: 2 h post-dose; oral 400-mg single dose, positive control, 1 day before cycle 1
# [3] = cited from earlier work
# [4] = cited from earlier work; for Patients with declines to <50 LVEF(%): Hutson et al.; for Mean change in LVEF(%): study by Chu et al.
Structure (SMILES),"AUC, geometric mean (% CV) ([1]; Day 1 of cycle 2)","AUC, geometric mean (% CV) ([1]; Day 1 of cycle 5)","AUCnorm, geometric mean (% CV) ([1]; Day 1 of cycle 2)","C max, geometric mean (% CV) ([1]; Day 1 of cycle 2)","C max,norm, geometric mean (% CV) ([1]; Day 1 of cycle 2)","C trough, geometric mean (% CV) ([1]; Day 1 of cycle 2)","C trough,norm, geometric mean (% CV) ([1]; Day 1 of cycle 2)","t max, median (range) ([1]; Day 1 of cycle 2)","AUCnorm, geometric mean (% CV) ([1]; Day 1 of cycle 5)","C max, geometric mean (% CV) ([1]; Day 1 of cycle 5)","C max,norm, geometric mean (% CV) ([1]; Day 1 of cycle 5)","C trough, geometric mean (% CV) ([1]; Day 1 of cycle 5)","C trough,norm, geometric mean (% CV) ([1]; Day 1 of cycle 5)","t max, median (range) ([1]; Day 1 of cycle 5)",AUC ratio (90% CI) [1],C max ratio (90% CI) [1],C trough ratio (90% CI) [1],other results
NC(=O)c1cc(Oc2ccc(NC(=O)Nc3ccc(Cl)c(C(F)(F)F)c3)cc2)ccn1 [BAY 43-9007],2.0 (59.1) mg h/L,1.1 (74.0) mg h/L,0.4 (62.8) kg h/L,0.2 (73.4) mg/L,0.1 (75.2) kg/L,0.2 (82.3) mg/L,<0.1 (85.0) kg/L,1.00 (0–12.00) h,0.2 (80.9) kg h/L,0.1 (75.5) mg/L,<0.1 (78.2) kg/L,0.1 (82.4) mg/L,<0.1 (84.8) kg/L,2.00 (0–12.00) h,0.57 (0.41–0.81),0.51 (0.38–0.68),0.52 (0.38–0.70),–
COc1c(N2C[C@@H]3CCCN[C@@H]3C2)c(F)cc2c(=O)c(C(=O)O)cn(C3CC3)c12 [Moxifloxacin],–,–,–,–,–,–,–,–,–,–,–,–,–,–,–,–,–,Mean (SD) change from baseline in QT [2]: 5.7 (24.3) ms; Mean (SD) change from baseline in QTcB [2]: 4.4 (12.9) ms; Mean (SD) change from baseline in QTcF [2]: 4.9 (13.7) ms; Increase in QT/QTc interval [3]: 5 to 10 ms
CCN(CC)CCNC(=O)c1c(C)[nH]c(/C=C2\C(=O)Nc3ccc(F)cc32)c1C [sunitinib],–,–,–,–,–,–,–,–,–,–,–,–,–,–,–,–,–,Patients with declines to <50 LVEF(%) ([4]; after 1 cycle (6 weeks)): 12%; Patients with declines to <50 LVEF(%) ([4]; after 1 year): 10%; Mean change in LVEF(%) ([4]; after 2 cycles): −2.2 LVEF(%); Patients with declines to <50 LVEF(%) ([4]; after 2 years): 5%; Mean change in LVEF(%) ([4]; after 4 cycles): −5.1 LVEF(%); Incidence of ≥10 LVEF(%) reduction ([4]; observational study by Schmidinger et al.): 14%

# Second part, led by results:
"AUC, geometric mean (% CV) ([1]; Day 1 of cycle 2)","AUC, geometric mean (% CV) ([1]; Day 1 of cycle 5)","AUCnorm, geometric mean (% CV) ([1]; Day 1 of cycle 2)","C max, geometric mean (% CV) ([1]; Day 1 of cycle 2)","C max,norm, geometric mean (% CV) ([1]; Day 1 of cycle 2)","C trough, geometric mean (% CV) ([1]; Day 1 of cycle 2)","C trough,norm, geometric mean (% CV) ([1]; Day 1 of cycle 2)","t max, median (range) ([1]; Day 1 of cycle 2)","AUCnorm, geometric mean (% CV) ([1]; Day 1 of cycle 5)","C max, geometric mean (% CV) ([1]; Day 1 of cycle 5)","C max,norm, geometric mean (% CV) ([1]; Day 1 of cycle 5)","C trough, geometric mean (% CV) ([1]; Day 1 of cycle 5)","C trough,norm, geometric mean (% CV) ([1]; Day 1 of cycle 5)","t max, median (range) ([1]; Day 1 of cycle 5)",AUC ratio (90% CI) [1],C max ratio (90% CI) [1],C trough ratio (90% CI) [1],Structure (SMILES),other results
2.8 (92.3) mg h/L,1.4 (129.3) mg h/L,0.5 (91.4) kg h/L,0.3 (101.6) mg/L,0.1 (99.6) kg/L,0.3 (114.5) mg/L,0.1 (113.5) kg/L,2.00 (0–12.00) h,0.3 (128.1) kg h/L,0.2 (127.2) mg/L,<0.1 (123.6) kg/L,0.1 (127.8) mg/L,<0.1 (124.7) kg/L,2.00 (0–8.05) h,0.50 (0.28–0.89),0.47 (0.28–0.80),0.49 (0.29–0.83),NC(=O)c1cc(Oc2ccc(NC(=O)Nc3ccc(Cl)c(C(F)(F)F)c3)cc2)cc[n+]1[O-] [BAY 68-7769],–
8.5 (58.3) mg h/L,5.2 (98.7) mg h/L,1.4 (59.6) kg h/L,1.0 (66.8) mg/L,0.2 (70.2) kg/L,0.8 (81.1) mg/L,0.1 (85.9) kg/L,1.00 (0–12.00) h,0.9 (103.2) kg h/L,0.6 (96.9) mg/L,0.1 (100.7) kg/L,0.5 (109.4) mg/L,0.1 (111.5) kg/L,2.00 (0–8.12) h,0.61 (0.41–0.92),0.58 (0.41–0.82),0.54 (0.36–0.81),CNC(=O)c1cc(Oc2ccc(NC(=O)Nc3ccc(Cl)c(C(F)(F)F)c3)cc2)cc[n+]1[O-] [BAY 67-3472],–
